From patent US9149043B2, “Compositions and method for preventing and treating fire blight” (priority 2009, dated 2015)
Where “and” joins values, the source holds several entries; their conditions need not be identical. Equal entries are not always repeated.

Test system: Erwinia amylovara
Assay: Measuring the efficiency against fire blight on inoculated apple blossoms
Assay type: in vivo
Conditions: 0.06 % by weight in water (positive control); apple blossoms sprayed 1 h after inoculation, 6 days, vs water control
Protocol: For measuring the efficiency of the aqueous compositions, 24 blossoms of the apple varieties Braeburn, Jona Gold and Gala are placed in sugar solution and inoculated with a suspension of Erwinia amylovara at 10^6 bacterial cells. One hour after inoculation, the blossoms are sprayed, respectively, with the composition to be tested or with water, serving as a negative control, until completely wetted. These blossoms are incubated for 6 days at 20 to 23° C. and at a relative humidity of 100%.
The efficiency specifies the decrease of infested blossoms utilizing the composition to be tested in comparison to blossoms, which were treated with water only. All tests are conducted three to six times, and from the measured data the empirical mean of the efficiency, as well as the empirical standard deviation σ are calculated, whereby the standard deviation σ represents […] of the data from the arithmetic mean of the efficiency.

Compound: [H]/N=C(/N)N[C@H]1[C@H](O)[C@@H](O)[C@H](O[C@@H]2O[C@@H](C)[C@](O)(C=O)[C@H]2O[C@@H]2O[C@@H](CO)[C@H](O)[C@@H](O)[C@@H]2NC)[C@@H](N/C(N)=N\[H])[C@@H]1O [streptomycin]
- mean of efficiency: 74% and 70% and 75%
